Assay in all cases: whole plant or invertebrate
Holding throughout (format): in vivo

Experiment [1] has as its system yellow fever mosquito (Aedes aegypti). To be noted: 48 h, larval mortality after 2 days, read-out: mortality in comparison with untreated controls. The procedure: Example B1: Action on Yellow Fever Mosquito (Aedes aegypti)
For evaluating control of yellow fever mosquito (Aedes aegypti) the test unit consisted of 96-well-microtiter plates containing 200 μl of tap water per well and 5-15 freshly hatched A. aegypti larvae.
The active compounds or mixtures were formulated using a solution containing 75% (v/v) water and 25% (v/v) DMSO. Different concentrations of formulated compounds or mixtures were sprayed onto the insect diet at 2.5 μl, using a custom built micro atomizer, at two replications. For experimental mixtures in these tests identical volumes of both mixing partners at the desired concentrations respectively, were mixed together.
After application, microtiter plates were incubated at 28±1° C., 80±5% RH for 2 days. Larval mortality was then visually assessed.

For experiment [2], the system named is orchid thrips (Dichromothrips corbetti). The following applies: adult thrips, 72 hours after treatment, read-out: mortality in comparison with untreated controls. The procedure: Dichromothrips corbetti adults used for bioassay were obtained from a colony maintained continuously under laboratory conditions. For testing purposes, the test compound is diluted in a 1:1 mixture of acetone:water (vol:vol), plus Kinetic® HV at a rate of 0.01% v/v.
Thrips potency of each compound was evaluated by using a floral-immersion technique. All petals of individual, intact orchid flowers were dipped into treatment solution and allowed to dry in Petri dishes. Treated petals were placed into individual re-sealable plastic along with about 20 adult thrips. All test arenas were held under continuous light and a temperature of about 28° C. for duration of the assay. After 3 days, the numbers of live thrips were counted on each petal. The percent mortality was recorded 72 hours after treatment.

Experiment [3] relates to boll weevil (Anthonomus grandis). The following applies: 120 h, egg and larval mortality after 5 days, read-out: mortality in comparison with untreated controls.
Experiment [4] has as its system tobacco budworm (Heliothis virescens). To be noted: 120 h, egg and larval mortality after 5 days, read-out: mortality in comparison with untreated controls. The procedure: For evaluating control of tobacco budworm (Heliothis virescens) the test unit consisted of 96-well-microtiter plates containing an insect diet and 15-25 H. virescens eggs.
Different concentrations of formulated compounds were sprayed onto the insect diet at 10 μl, using a custom-built micro atomizer, at two replications.
After application, microtiter plates were incubated at about 28+1° C. and about 80+5% relative humidity for 5 days. Egg and larval mortality were then visually assessed.

The test system of experiment [5] is diamond back moth (Plutella xylostella). To be noted: in Brassica oleracea, foliar, 3rd instar larvae, 72 hours after treatment, read-out: mortality in comparison with untreated controls. The procedure:
Surfactant (Kinetic® HV) is added at a rate of 0.01% (v/v). The test solution is prepared at the day of use.
Leaves of cabbage were dipped in test solution and air-dried. Treated leaves were placed in petri dishes lined with moist filter paper and inoculated with ten 3rd instar larvae. Mortality was recorded 72 hours after treatment. Feeding damages were also recorded using a scale of 0-100%.

In experiment [6] the test system is southern armyworm (Spodoptera eridania). To be noted: in Phaseolus lunatus, 96 h, 2nd instar larvae, 4 days after treatment, read-out: mortality in comparison with untreated controls. The procedure:
The 10,000 ppm solution was serially diluted in 100% cyclohexanone to make interim solutions. These served as stock solutions for which final dilutions were made by the Tecan in 50% acetone:50% water (v/v) into 10 or 20 ml glass vials. A nonionic surfactant (Kinetic®) was included in the solution at a volume of 0.01% (v/v). The vials were then inserted into an automated electrostatic sprayer equipped with an atomizing nozzle for application to plants/insects.
Lima bean plants (variety Sieva) were grown 2 plants to a pot and selected for treatment at the 1st true leaf stage. Test solutions were sprayed onto the foliage by an automated electrostatic plant sprayer equipped with an atomizing spray nozzle. The plants were dried in the sprayer fume hood and then removed from the sprayer. Each pot was placed into perforated plastic bags with a zip closure. About 10 to 11 armyworm larvae were placed into the bag and the bags zipped closed. Test plants were maintained in a growth room at about 25° C. and about 20-40% relative humidity for 4 days, avoiding direct exposure to fluorescent light (24 hour photoperiod) to prevent trapping of heat inside the bags. Mortality and reduced feeding were assessed 4 days after treatment, compared to untreated control plants.

In the case of `CC(=O)OCS/C(=N\N=C\c1ccc(-c2nn(C)c(NC(=O)c3ccc(OC(F)(F)F)cc3)c2C#N)cc1)Nc1cc(C)ccc1C(C)C` [Compound C-7, [(Z)—N′-[(E)-[4-[4-cyano-1-methyl-5-[[4-(trifluoromethoxy)benzoyl]amino]pyrazol-3-yl]phenyl]methyleneamino]-N-(2-isopropyl-5-methylphenyl)carbamimidoyl]sulfanylmethyl acetate], the mortality at 800 ppm in experiment [1] was ≥ 50%; in experiment [3], ≥ 75%; in experiment [4] it was ≥ 75%. For the same molecule, the mortality at 500 ppm in experiment [2] and in experiment [5] was ≥ 75% throughout. Moreover, the mortality at 300 ppm in experiment [6] is ≥ 75%.

Take `Cc1ccc(C(C)C)c(N/C(=N/N=C/c2ccc(-c3nn(C)c(NC(=O)c4ccc(OC(F)(F)F)cc4)c3C#N)cc2)SCOC(=O)C(C)C)c1` [Compound C-8, [(Z)—N′-[(E)-[4-[4-cyano-1-methyl-5-[[4-(trifluoromethoxy)benzoyl]amino]pyrazol-3-yl]phenyl]methyleneamino]-N-(2-isopropyl-5-methylphenyl)carbamimidoyl]sulfanylmethyl 2-methylpropanoate]: the results for the mortality at 800 ppm in experiment [1], in experiment [3] and in experiment [4] were ≥ 50%, ≥ 75% and ≥ 75%, respectively. Moreover, the mortality at 500 ppm in experiment [2] and in experiment [5] was ≥ 75% throughout. In experiment [6], the mortality at 300 ppm was ≥ 75%.

For orientation: mortality means the share of the test organisms that died.
